Measurements as given in PMC11831560, “Development of the Pyrido[2,3-d]pyrimidin-7(8H)-one Scaffold toward Potent and Selective NUAK1 Inhibitors” (ACS Medicinal Chemistry Letters, 2025).

Tests used:
Test in all cases: Kinase panel radiometric filter binding (33P-ATP)
Assay type in all cases: biochemical
Set-up in all cases: dose or concentration left out as unconfirmed
PKD1 = PKD1 (Homo sapiens, UniProt Q15139)
Method: (§1) Table S4: AMPKA kinase activity data (ADP-Glo assay)
(§2) Compound pIC50 (Fold selectivity
(§3) Table S5. Kinase selectivity screening for 9 and 24 at 1 µM against a general kinase panel of 140 targets
(§4) in radiometric filter binding assay using 33P-γ−ATP at the MRC PPU International Centre for Kinase
(§5) Profiling, University of Dundee. pIC50 values were determined for compounds with <20% activity
(§6) Kinase activity s.d. pIC50 activity s.d. pIC50

GCK = GCK (Homo sapiens, UniProt Q12851)
Method: as §1, §2, §3, §4, §5, §6

CHK1 = CHK1 (Homo sapiens, UniProt O14757)
Chain of CHK1 (O14757 whole entry): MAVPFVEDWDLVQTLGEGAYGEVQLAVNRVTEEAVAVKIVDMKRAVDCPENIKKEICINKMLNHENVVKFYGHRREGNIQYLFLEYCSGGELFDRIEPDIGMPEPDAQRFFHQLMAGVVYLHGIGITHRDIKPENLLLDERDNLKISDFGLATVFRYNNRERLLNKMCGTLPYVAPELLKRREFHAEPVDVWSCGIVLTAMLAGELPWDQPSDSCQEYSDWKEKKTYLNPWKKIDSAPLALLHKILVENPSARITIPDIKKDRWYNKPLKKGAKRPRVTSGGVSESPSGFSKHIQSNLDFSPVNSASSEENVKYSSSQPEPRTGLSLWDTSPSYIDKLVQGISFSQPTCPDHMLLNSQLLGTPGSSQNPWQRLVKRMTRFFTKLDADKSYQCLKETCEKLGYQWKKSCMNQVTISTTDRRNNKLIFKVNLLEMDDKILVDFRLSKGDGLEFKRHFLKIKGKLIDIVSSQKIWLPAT
Method: as §1, §2, §3, §4, §5, §6

CDK2-Cyclin A = CDK2-Cyclin A (Homo sapiens, UniProt P24941)
Method: as §1, §2, §3, §4, §5, §6

HER4 = HER4 (Homo sapiens, UniProt Q15303)
Method: as §1, §2, §3, §4, §5, §6

Lck = Lck (Homo sapiens, UniProt P06239)
Method: as §1, §2, §3, §4, §5, §6

PLK1 = PLK1 (Homo sapiens, UniProt P53350)
Chain of PLK1 (P53350 whole entry): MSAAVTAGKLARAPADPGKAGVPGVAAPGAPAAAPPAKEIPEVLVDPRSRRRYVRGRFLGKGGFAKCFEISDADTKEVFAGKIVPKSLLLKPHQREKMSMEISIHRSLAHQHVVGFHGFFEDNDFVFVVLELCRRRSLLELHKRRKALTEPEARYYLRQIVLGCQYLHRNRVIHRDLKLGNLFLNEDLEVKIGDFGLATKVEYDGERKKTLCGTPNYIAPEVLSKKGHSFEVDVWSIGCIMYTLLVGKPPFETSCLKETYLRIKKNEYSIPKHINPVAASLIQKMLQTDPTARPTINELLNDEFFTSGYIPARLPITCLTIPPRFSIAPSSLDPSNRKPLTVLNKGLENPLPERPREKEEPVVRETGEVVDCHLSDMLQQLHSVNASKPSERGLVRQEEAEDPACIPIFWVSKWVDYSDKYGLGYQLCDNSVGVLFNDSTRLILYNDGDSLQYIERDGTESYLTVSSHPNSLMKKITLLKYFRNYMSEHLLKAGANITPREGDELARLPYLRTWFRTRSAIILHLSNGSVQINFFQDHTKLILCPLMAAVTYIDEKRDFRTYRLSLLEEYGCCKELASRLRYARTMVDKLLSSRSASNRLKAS
Method: as §1, §2, §3, §4, §5, §6

IRR = IRR (Homo sapiens, UniProt P14616)
Chain of IRR (P14616 27-1297): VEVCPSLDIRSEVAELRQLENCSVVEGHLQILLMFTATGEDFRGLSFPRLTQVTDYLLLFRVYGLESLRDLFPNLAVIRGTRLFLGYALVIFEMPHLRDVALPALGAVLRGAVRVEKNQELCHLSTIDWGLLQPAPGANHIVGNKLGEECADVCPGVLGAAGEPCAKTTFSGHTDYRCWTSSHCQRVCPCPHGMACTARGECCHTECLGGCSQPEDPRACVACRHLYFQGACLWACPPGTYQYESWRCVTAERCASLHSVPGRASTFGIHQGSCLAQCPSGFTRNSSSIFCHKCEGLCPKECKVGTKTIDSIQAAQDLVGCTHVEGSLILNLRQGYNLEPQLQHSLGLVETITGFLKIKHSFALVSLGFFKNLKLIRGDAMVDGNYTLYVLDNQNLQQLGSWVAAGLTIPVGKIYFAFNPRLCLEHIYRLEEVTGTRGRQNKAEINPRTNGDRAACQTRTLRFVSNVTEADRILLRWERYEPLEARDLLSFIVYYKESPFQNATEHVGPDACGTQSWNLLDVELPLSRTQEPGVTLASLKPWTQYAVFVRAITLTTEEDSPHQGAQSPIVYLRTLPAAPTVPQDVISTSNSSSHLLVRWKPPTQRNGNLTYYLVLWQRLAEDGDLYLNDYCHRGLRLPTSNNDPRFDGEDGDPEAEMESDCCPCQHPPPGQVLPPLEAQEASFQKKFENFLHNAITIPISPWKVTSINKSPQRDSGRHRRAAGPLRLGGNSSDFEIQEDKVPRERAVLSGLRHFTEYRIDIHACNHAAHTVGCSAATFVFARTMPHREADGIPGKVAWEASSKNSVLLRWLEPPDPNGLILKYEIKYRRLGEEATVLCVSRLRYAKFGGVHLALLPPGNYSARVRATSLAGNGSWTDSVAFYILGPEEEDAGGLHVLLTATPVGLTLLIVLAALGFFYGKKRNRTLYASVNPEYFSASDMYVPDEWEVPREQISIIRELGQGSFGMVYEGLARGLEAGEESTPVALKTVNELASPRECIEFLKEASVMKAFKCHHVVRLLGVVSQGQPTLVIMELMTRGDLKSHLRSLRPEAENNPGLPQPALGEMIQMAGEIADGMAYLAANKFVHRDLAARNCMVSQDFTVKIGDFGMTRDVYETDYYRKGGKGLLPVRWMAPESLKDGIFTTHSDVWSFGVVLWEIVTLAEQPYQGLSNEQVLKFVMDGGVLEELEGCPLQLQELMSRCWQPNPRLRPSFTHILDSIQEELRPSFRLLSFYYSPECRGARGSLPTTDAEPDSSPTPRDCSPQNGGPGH
Method: as §1, §2, §3, §4, §5, §6

PKBb = PKBb (Homo sapiens, UniProt P31751)
Method: as §1, §2, §3, §4, §5, §6

ROCK 2 = ROCK 2 (Homo sapiens, UniProt O75116)
Method: as §1, §2, §3, §4, §5, §6

ERK5 = ERK5 (Homo sapiens, UniProt Q13164)
Method: as §1, §2, §3, §4, §5, §6

LKB1 = LKB1 (Homo sapiens, UniProt Q15831)
Method: as §1, §2, §3, §4, §5, §6

JNK2 = JNK2 (Homo sapiens, UniProt P45984)
Chain of JNK2 (P45984 whole entry): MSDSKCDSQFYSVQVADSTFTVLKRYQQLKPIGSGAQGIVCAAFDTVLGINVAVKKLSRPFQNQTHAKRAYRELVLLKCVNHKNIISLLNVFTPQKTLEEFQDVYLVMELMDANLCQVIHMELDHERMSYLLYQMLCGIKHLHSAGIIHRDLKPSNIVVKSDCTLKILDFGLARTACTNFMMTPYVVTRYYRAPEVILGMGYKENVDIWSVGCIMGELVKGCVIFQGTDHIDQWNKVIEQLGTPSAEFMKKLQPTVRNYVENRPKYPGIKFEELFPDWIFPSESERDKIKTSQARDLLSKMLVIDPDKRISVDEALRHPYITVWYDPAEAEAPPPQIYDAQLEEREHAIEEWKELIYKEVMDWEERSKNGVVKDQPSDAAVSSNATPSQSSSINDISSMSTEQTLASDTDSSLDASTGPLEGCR
Method: as §1, §2, §3, §4, §5, §6

WNK1 = WNK1 (Homo sapiens, UniProt Q9H4A3)
Method: as §1, §2, §3, §4, §5, §6

CHK2 = CHK2 (Homo sapiens, UniProt O96017)
Method: as §1, §2, §3, §4, §5, §6

DAPK1 = DAPK1 (Homo sapiens, UniProt P53355)
Method: as §1, §2, §3, §4, §5, §6

EF2K = EF2K (Homo sapiens, UniProt O00418)
Method: as §1, §2, §3, §4, §5, §6

EPH-A2 = EPH-A2 (Homo sapiens, UniProt P29317)
Method: as §1, §2, §3, §4, §5, §6

PIM1 = PIM1 (Homo sapiens, UniProt P11309)
Method: as §1, §2, §3, §4, §5, §6

CK2 = CK2 (Homo sapiens, UniProt P68400)
Method: as §1, §2, §3, §4, §5, §6

EIF2AK3 = EIF2AK3 (Homo sapiens, UniProt Q9NZJ5)
Method: as §1, §2, §3, §4, §5, §6

DYRK2 = DYRK2 (Homo sapiens, UniProt Q92630)
Method: as §1, §2, §3, §4, §5, §6

MST2 = MST2 (Homo sapiens, UniProt Q13188)
Method: as §1, §2, §3, §4, §5, §6

PAK2 = PAK2 (Homo sapiens, UniProt Q13177)
Chain of PAK2 (Q13177 whole entry): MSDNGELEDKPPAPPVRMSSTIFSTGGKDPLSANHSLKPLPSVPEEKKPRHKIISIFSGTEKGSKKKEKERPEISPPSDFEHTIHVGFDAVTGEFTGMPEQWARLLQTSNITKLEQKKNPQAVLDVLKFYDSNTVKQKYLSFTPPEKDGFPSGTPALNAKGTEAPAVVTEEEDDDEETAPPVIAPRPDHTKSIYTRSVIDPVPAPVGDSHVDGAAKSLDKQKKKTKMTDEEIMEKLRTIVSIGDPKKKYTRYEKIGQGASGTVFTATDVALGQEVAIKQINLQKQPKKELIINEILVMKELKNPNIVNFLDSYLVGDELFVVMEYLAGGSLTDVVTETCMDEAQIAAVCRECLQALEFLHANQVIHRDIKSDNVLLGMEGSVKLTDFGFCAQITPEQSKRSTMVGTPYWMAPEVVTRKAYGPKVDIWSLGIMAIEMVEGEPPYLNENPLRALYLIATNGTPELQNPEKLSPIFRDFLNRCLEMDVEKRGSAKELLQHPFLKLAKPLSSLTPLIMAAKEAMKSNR
Method: as §1, §2, §3, §4, §5, §6

PAK4 = PAK4 (Homo sapiens, UniProt O96013)
Method: as §1, §2, §3, §4, §5, §6

STK33 = STK33 (Homo sapiens, UniProt Q9BYT3)
Method: as §1, §2, §3, §4, §5, §6

MARK3 = target: T1, MARK3 (Homo sapiens, UniProt P27448)
T1 construct: purchased MRC PPU
Method: as §1, §2, §3, §4, §5, §6

ULK1 = ULK1 (Homo sapiens, UniProt O75385)
Chain of ULK1 (O75385 whole entry): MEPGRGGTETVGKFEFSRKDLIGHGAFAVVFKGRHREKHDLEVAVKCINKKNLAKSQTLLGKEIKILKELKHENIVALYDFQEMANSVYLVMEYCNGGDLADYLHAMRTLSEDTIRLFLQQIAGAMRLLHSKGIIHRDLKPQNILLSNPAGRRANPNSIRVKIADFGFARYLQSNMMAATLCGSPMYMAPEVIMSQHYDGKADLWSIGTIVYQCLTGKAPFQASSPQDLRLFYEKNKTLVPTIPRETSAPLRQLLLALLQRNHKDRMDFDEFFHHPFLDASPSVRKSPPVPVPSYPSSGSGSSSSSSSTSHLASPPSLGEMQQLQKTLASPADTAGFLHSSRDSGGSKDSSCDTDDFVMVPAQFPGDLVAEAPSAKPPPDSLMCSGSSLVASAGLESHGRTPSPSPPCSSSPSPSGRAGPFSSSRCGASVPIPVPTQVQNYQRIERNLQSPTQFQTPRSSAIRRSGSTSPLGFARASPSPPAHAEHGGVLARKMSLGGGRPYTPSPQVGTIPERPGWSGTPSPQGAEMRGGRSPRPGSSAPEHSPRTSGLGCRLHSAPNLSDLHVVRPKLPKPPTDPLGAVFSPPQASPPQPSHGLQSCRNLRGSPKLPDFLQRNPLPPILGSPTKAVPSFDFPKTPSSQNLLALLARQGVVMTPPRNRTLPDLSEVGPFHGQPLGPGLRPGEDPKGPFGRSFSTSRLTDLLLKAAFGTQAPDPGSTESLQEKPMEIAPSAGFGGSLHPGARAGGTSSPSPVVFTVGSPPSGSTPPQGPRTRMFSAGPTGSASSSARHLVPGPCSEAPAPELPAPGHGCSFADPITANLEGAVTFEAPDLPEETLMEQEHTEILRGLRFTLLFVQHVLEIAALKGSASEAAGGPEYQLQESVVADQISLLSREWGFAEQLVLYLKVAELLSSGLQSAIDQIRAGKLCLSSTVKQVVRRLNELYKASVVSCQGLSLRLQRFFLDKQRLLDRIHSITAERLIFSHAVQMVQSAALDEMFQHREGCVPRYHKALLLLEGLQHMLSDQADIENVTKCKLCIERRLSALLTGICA
Method: as §1, §2, §3, §4, §5, §6

SIK3 = SIK3 (Homo sapiens, UniProt Q9Y2K2)
Method: as §1, §2, §3, §4, §5, §6

PKBa = PKBa (Homo sapiens, UniProt P31749)
Chain of PKBa (P31749 whole entry): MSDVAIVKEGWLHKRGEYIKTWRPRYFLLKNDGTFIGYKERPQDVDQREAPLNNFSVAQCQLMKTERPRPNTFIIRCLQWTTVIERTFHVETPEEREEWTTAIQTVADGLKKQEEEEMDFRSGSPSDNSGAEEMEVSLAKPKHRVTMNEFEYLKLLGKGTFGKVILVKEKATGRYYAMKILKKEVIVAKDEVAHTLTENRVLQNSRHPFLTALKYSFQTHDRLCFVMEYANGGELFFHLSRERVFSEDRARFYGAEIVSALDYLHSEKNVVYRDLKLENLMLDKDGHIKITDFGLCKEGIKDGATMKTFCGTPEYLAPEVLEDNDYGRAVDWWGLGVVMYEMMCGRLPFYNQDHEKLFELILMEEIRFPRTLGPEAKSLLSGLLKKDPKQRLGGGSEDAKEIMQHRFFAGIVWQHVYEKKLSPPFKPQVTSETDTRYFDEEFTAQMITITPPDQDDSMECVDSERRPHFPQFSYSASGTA
Method: as §1, §2, §3, §4, §5, §6

MAPKAP-K3 = MAPKAP-K3 (Homo sapiens, UniProt Q16644)
Method: as §1, §2, §3, §4, §5, §6

MST4 = MST4 (Homo sapiens, UniProt Q9P289)
Method: as §1, §2, §3, §4, §5, §6

PKCz = PKCz (Homo sapiens, UniProt Q05513)
Method: as §1, §2, §3, §4, §5, §6

EPH-B2 = EPH-B2 (Homo sapiens, UniProt P29323)
Method: as §1, §2, §3, §4, §5, §6

CSK = CSK (Homo sapiens, UniProt P41240)
Method: as §1, §2, §3, §4, §5, §6

Row | Structure (SMILES) | % activity remaining (PKD1) [%] | % activity remaining (GCK) [%] | % activity remaining (CHK1) [%] | % activity remaining (CDK2-Cyclin A) [%] | % activity remaining (HER4) [%] | % activity remaining (Lck) [%] | % activity remaining (PLK1) [%] | % activity remaining (IRR) [%] | % activity remaining (PKBb) [%] | % activity remaining (ROCK 2) [%] | % activity remaining (ERK5) [%] | % activity remaining (LKB1) [%] | % activity remaining (JNK2) [%] | % activity remaining (WNK1) [%] | % activity remaining (CHK2) [%] | % activity remaining (DAPK1) [%] | % activity remaining (EF2K) [%] | % activity remaining (EPH-A2) [%] | % activity remaining (PIM1) [%] | % activity remaining (CK2) [%] | also measured
1 | CN1C2CC1CN(c1ccc(Nc3ncc4ccn(CC5CCOCC5)c4n3)cc1)C2 [Compound 24] | 54 | 89 | 75 | 79 | 74 | 67 | 64 | 94 | 93 | 78 | 102 | 100 | 88 | 84 | 98 | 125 | 102 | 76 | 84 | 96 | % activity remaining (EIF2AK3): 86%; % activity remaining (DYRK2): 103%; % activity remaining (MST2): 91%; % activity remaining (PAK2): 107%; % activity remaining (PAK4): 89%; % activity remaining (STK33): 93%; % activity remaining (MARK3): 104%; % activity remaining (ULK1): 77%; % activity remaining (SIK3): 74%; % activity remaining (PKBa): 110%; % activity remaining (MAPKAP-K3): 109%; % activity remaining (MST4): 92%; % activity remaining (PKCz): 118%; % activity remaining (EPH-B2): 82%; % activity remaining (CSK): 97%
2 | Cc1cc(=O)n(C2CCCC2)c2nc(Nc3ccc(N4CC5CC(C4)N5C)cc3)ncc12 [Compound 9] | 20 | 76 | 57 | 59 | 118 | 64 | 32 | 70 | 99 | 56 | 80 | 104 | 35 | 103 | 72 | 60 | 72 | 77 | 90 | 108 | % activity remaining (EIF2AK3): 41%; % activity remaining (DYRK2): 103%; % activity remaining (MST2): 62%; % activity remaining (PAK2): 97%; % activity remaining (PAK4): 50%; % activity remaining (STK33): 101%; % activity remaining (MARK3): 35%; % activity remaining (ULK1): 23%; % activity remaining (SIK3): 85%; % activity remaining (PKBa): 103%; % activity remaining (MAPKAP-K3): 84%; % activity remaining (MST4): 61%; % activity remaining (PKCz): 110%; % activity remaining (EPH-B2): 60%; % activity remaining (CSK): 104%
